# Assay results: patent publication US10273242B2, “Compound inhibiting activities of BTK and/or JAK3 kinases” (BEIJING HANMI PHARMACEUTICAL CO., LTD., priority 2013, dated 2019)
# Key:
# [1] = system: p-BTK (pY223) in Ramos cells; test: p-BTK inhibition assay in Ramos cells (Western blot); assay type: cell-based; conditions: compound 1 hour, anti-human IgM stimulation
# Experimental: (§1) Ramos cells (purchased from the Beijing Union Medical College) with starvation culture for 1 hour were treated with the compounds of the present invention for 1 hour, and then rinsed with PBS buffer (pH 7.2) to remove the compounds. Then they were resuspended in 100 μL of serum-free culture medium containing 1 μM of anti-human IgM F(ab′)2 (purchased from SBA company, No.: 2022-01) and stimulated on ice for 10 minutes. The cells were rinsed with PBS buffer (pH 7.2) to remove IgM and resuspended in 100 μL of protein lysis buffer (purchased from Sigma, No.: C2978), and then prepared and quantified the protein sample. 100 μg of the protein sample were taken and loaded on polyacrylamide gels for electrophoresis under 200V of voltage. After electrophoresis, protein blots were transferred to a PVDF membrane. […] The protein expression was detected by coloration using ECL substrate (purchased from GE, No.: RPN2109).
# [2] = system: p-PLCγ2 (pY1217) in Ramos cells; test: p-PLCγ2 inhibition assay in Ramos cells (Western blot); assay type: cell-based; conditions: compound 1 hour, anti-human IgM stimulation
# Experimental: as §1
# [3] = system: DBA/1J mice; test: Type II collagen-induced arthritis (CIA) model in DBA/1J mice; assay type: in vivo; conditions: 3 mg/kg and 10 mg/kg orally once a day for 14 days
# Text: The CIA model is a widely-used animal model in the study of drugs for the treatment of rheumatoid arthritis in human. The experimental animals used in this experiment are DBA/1J mice (male, 6 to 8 weeks of age, purchased from Shanghai Silaike Laboratroy Animal Co., Ltd., China). Mice were housed in an IVC system.
# In order to induce the mice CIA model, a bovine type II collagen (CII) (purchased from Chondrex company, No.: 20022) solution was emulsified with the same volume of complete Freund's adjuvant (CFA) (purchased from Sigma-Aldrich, No.: F5881) using an electronic homogenizer to prepare an emulsion. Then, 70 μL of the prepared emulsion was intradermally injected into the base of the tail of the mice as a primary immunization. Three weeks after the primary immunization, one booster immunization was carried out. […] According to the following criteria, Mice were evaluated for the severity of arthritis using an established scoring system ranging from 0 to 4 (0 score: no evidence of edema or swelling; 1 score: mild edema and redness confined to the ankle joint or tarsal; 2 scores: mild edema and redness, from the ankle joint to the tarsal; 3 scores: moderate edema and redness, from the ankle joint to the metatarsal; and 4 scores: severe edema and redness, from the ankle to the whole instep and toes, or ankylosis of the ankle or wrist joints). […]
# [4] = system: Lewis rats; test: Adjuvant-induced arthritis (AIA) model in rats; assay type: in vivo; conditions: 30 mg/kg and 100 mg/kg orally once a day for 7 days
# Experimental: 100 mg of inactivated Mycobacterium tuberculosis (purchased from BD Difco, No.: 231141) accurately weighed and dissolved in 5 mL of incomplete Freund's adjuvant (IFA) (purchased from Sigma, No.: F5506), and then with 5 mL of physiological saline added, was homogeneously emulsified into 10 mg/mL of complete Freund's adjuvant (CFA). […] Rats were evaluated for the severity of arthritis using an established scoring system ranging from 0 to 4 as follows: 0=no evidence of erythema or swelling; 1=slight erythema or swelling of one of the toe joints; 2=erythema or swelling of more than one toe; 3=swelling of the ankle or wrist joint; 4=swelling of all toes including the ankle joint. All four paws of the rat were scored individually, and the highest score was 16.
# The paw volumes of the rats were measured by the drainage method using a plethysmometer (Plethysmometer PV-200, Chengdu Taimeng Science and Technology Co., Ltd.) to determine the volumes below the ankle joints (in mL). The rats were measured for paw volumes every other day from day 10 after primary immunization, i.e. day 1 of the administration. […]
smiles,measurement,setting,value
"C=CC(=O)N1CC[C@@H](Nc2nc(Nc3cc(C)ns3)nc3ccsc23)C1 [Example 132, (R)-1-(3-((2-((3-methyl-isothiazol-5-yl)amino)thieno[3,2-d]pyrimidin-4-yl)amino)pyrrolidin-1-yl)prop-2-en-1-one]",inhibition of expression of p-BTK,[1],significantly inhibit the expressions of p-BTK and p-PLCγ2 in Ramos cells in a dose-dependent manner
same,inhibition of expression of p-PLCγ2,[2],significantly inhibit the expressions of p-BTK and p-PLCγ2 in Ramos cells in a dose-dependent manner
same,therapeutic effect on arthritis (arthritis severity scores),[3],good therapeutic effect on arthritis in the CIA model at the designed doses in a dose dependent manner
same,therapeutic effect on arthritis (arthritis severity scores),[4],good therapeutic effect on arthritis in the AIA model at the designed doses
